From patent publication US20150289795A1, “METHODS AND KITS FOR THE PROGNOSIS OF COLORECTAL CANCER” (INSTITUCIÓ CATALANA DE RECERCA I ESTUDIS AVANÇATS, priority 2012, published 2015)

Key:
[1] = system: TGF-beta signalling (p-SMAD2); experiment: TGF-beta signalling and target gene mRNA in pre-established xenografts; format: in vivo, mice; conditions: tenfold higher dosed treatment for 3 days
Text: The TGF-beta receptor I kinase antagonist, LY2157299, developed by Eli Lilly (Beight, 2004, Eli Lilly and Co. PCT Int. Appl. In PCT Int. Appl. WO2004048382A1; Bueno et al., 2008; Eur J Cancer 44, 142-150) was synthesized following the procedure described (Mundla, 2007; Eli Lilly and Company. PCT Int. Appl. WO2007018818A1. In, (USA)). TGF-beta receptor type I inhibitor LY2157299 was suspended in a formulation (vehicle) composed of 1% sodium carboxy methylcellulose (NaCMC), 0.4% sodium lauryl sulfate (SLS), 0.05% anti-foam and 0.085% polyvinylpyrrolidone (PVP) in a concentration of 6.67 mg mL^−1. Mice were dosed twice a day with 2 mg in 300 μL (2 mg) per os. starting 3 days before CRC cell lines inoculation. A tenfold higher dosed treatment for 3 days was used to show TGF-beta signalling (p-SMAD2) and target gene mRNA downregulation in pre-established xenografts.

[2] = system: colon cancer stem cells derived from a stage IV patient; experiment: liver metastasis after intrasplenic inoculation of CoCSCs, bioluminescence; format: in vivo, NSG mice
Text: (§1) A. Kaplan Meier curves show tumour free survival over time for mice injected subcutaneously with colon cancer stem cells derived from a stage IV patient, treated or not with a TGF beta inhibitor (LY2157299). Mice received LY2157299 or vehicle from three days prior to inoculation until sacrifice (n=12) B. Bioluminescence over time after intrasplenic inoculation of 5×10^5 colon cancer stem cells derived from a stage IV patient in NSG mice treated as in A. Intensities were normalized to day 0 and arbitrarily set to 100. Values are mean±SEM (*: p<0.05).
(§2) All experiments with mouse models were approved by the animal care and use committee of the Barcelona Science Park (CEEA-PCB) and the Catalan Government. Cells were injected subcutaneously in 5 to 6 weeks old Swiss nude or NSG mice, (Jackson Labs), which were followed for the periods described. Tumour appearance was assessed by palpation. […]
Mice were anaesthetized, injected retro-orbitally with D-luciferin (Promega) and imaged for luciferase activity as previously described (Minn et al., 2005; J Clin Invest 115, 44-55). Luciferase activity measured immediately after cell injection was used to exclude any mice that were not successfully xenografted and to normalize bioluminescence. […]

[3] = system: colon cancer stem cells derived from a stage IV patient; experiment: subcutaneous tumour formation by primary CoCSC-derived cells in mice; format: in vivo; conditions: 2 mg twice a day per os, from three days prior to inoculation until sacrifice; FIG. 12A
Text: as §1
as §2, with “palpation. Five to six weeks old Balb/c nude or NSG mice (Jackson Labs) were used to perform metastasis experiments by intra-splenic injection (Warren et al., 1995, J. Clin. Invest. 95, 1789-1797)” for “palpation.”

[4] = system: CoCSC-derived culture (TGFBR2-mutant tumour organoids of a Stage IV CRC patient); experiment: in vitro growth of CoCSC-derived tumour organoid culture; format: cell-based, human; conditions: both TGFBR2 alleles inactivated, data not shown
Text: The purification of Colon Cancer CoCSCs from CRC biopsies is described elsewhere (Merlos-Suarez et al., 2011, Cell Stem Cell 8, 511-524). We isolated CoCSCs from the primary tumour of a Stage IV CRC patient and cultured them as epithelial tumour organoids as described in (Jung et al., 2011; Nat Med 17, 1225-1227; Sato et al., 2011; Gastroenterology 141, 1762-1772). […] When injected in immunodeficient mice, they generated tumours with abundant p-SMAD2+ stromal cells, implying that this primary CoCSCs elicited a TGF-beta response in the tumour microenvironment (data not shown).

Compound	TGF-beta signalling (p-SMAD2) and target gene mRNA [1]	number of cells that engrafted the liver immediately after inoculation ([2]; kinetics of metastatic colonization, FIG. 12B inset)	formation of liver metastasis by CoCSCs inoculated via the spleen ([2]; same regime, 5×10^5 cells intrasplenic, NSG mice, FIG. 12B)	formation of subcutaneous tumours (tumour free survival) [3]	in vitro growth rates, morphology or organoid forming activity [4]
Cc1cccc(-c2nn3c(c2-c2ccnc4ccc(C(N)=O)cc24)CCC3)n1 [LY2157299, 2-(6-methyl-pyridin-2-yl)-3-[6-amido-quinolin-4-yl)-5,6-dihydro-4H-pyrrolo[1,2-b]pyrazole]	downregulation	reduced the number of cells that engrafted the liver	reduced formation of liver metastasis	conferred resistance to the formation of subcutaneous tumours	did not modify
active TGF-beta: active TGF-beta added to the CoCSC-derived culture					did not modify
